Data taken from patent publication US4146718A, “Alkyl 5,6-dichloro-3,4-dihydro-2(1H)-iminoquinazoline-3-acetate hydrohalides” (Bristol-Myers Company, priority 1978, dated 1979).
In brackets after ≈: the same amount, converted by molar mass. Counter-ions that a name gives are not always drawn. Like-named read-outs stand apart in the source and are kept apart here.

Tests used:
[1] = system: Rabbit - PRP (ADP- and collagen-induced platelet aggregation); assay: Aggregometry - Rabbit - PRP, In Vitro; type: cell-based; conditions: Oryctolagus cuniculus
Excerpt: (§1) As stated above, the compound of Formula I is a known blood platelet antiaggregative agent. Table I compares the activities of the compound of Formula I and other known blood platelet antiaggregative agents in various antiaggregative and antithrombosis tests. Although the compounds of Formula III are primarily intended as intermediates in the preparation of the compound of Formula I, they themselves have blood platelet antiaggregative properties. For comparison purposes, one of the compounds of Formula III (R^1 = ethyl, X = bromo) is included in Table I. The tests referred to in Table I were conducted as set out in detail in J. S. Fleming, et al., Journal of Pharmacology and Experimental Therapeutics, 194, 435 (1975).
(§2) Antiaggregative and Antithrombosis Tests in Various In Vitro, Ex Vivo
(§3) Aggregometry - Rabbit - PRP
(§4) (μg/ml) (mg/kp ip) Biolaser
(§5) PRP = Platelet-rich plasma
(§6) ADP = Adenosine diphosphate

[2] = system: Rabbit - PRP (ADP- and collagen-induced platelet aggregation); assay: Aggregometry - Rabbit - PRP, Ex Vivo; type: in vivo; conditions: Oryctolagus cuniculus, ip
Excerpt: as §1, §2, §3, §4, §5, §6

[3] = system: Biolaser Thrombosis; assay: In Vivo Animal Model: Rabbit Biolaser Thrombosis; conditions: Oryctolagus cuniculus, read-out: ED50, Rabbit Biolaser Thrombosis
[4] = system: Electrical Thrombosis; assay: In Vivo Animal Model: Dog Electrical Thrombosis; conditions: Canis lupus familiaris, read-out: ED50, Dog Electrical Thrombosis
[5] = system: Endotoxin Shock; assay: In Vivo Animal Model: Rat Endotoxin Shock; conditions: po
Excerpt: as §1
In Vivo Animal Models ED50's (mg/kg)

[6] = ADP, read-out: In Vitro EC50, ADP
[7] = Collagen, read-out: In Vitro EC50, Collagen
[8] = ADP, read-out: Ex Vivo ED50, ADP
[9] = Collagen, read-out: Ex Vivo ED50, Collagen

Row | SMILES | EC50 [1, 6] | EC50 [1, 7] | ED50 [2, 8] | ED50 [2, 9] | ED50 ([3]; iv) | ED50 ([4]; po) | ED50 [5] | ED50 ([3]; rabbit, po) | ED50 ([4]; dog, po) | ED50 ([3]; rabbit, iv) | ED50 ([4]; dog, ip)
1 | CC(=O)Oc1ccccc1C(=O)O [Aspirin] | > 512 µg/mL | 7 µg/mL (≈ 38.9 µM) | > 100 mg/kg | 3 mg/kg | > 60 mg/kg | 50 mg/kg | > 256 mg/kg |  |  |  | 
2 | O=C1CN2Cc3c(ccc(Cl)c3Cl)N=C2N1 [Compound I, 6,7-dichloro-1,5-dihydroimidazo[2,1-b]quinazolin-2(3H)-one] | 0.3 µg/mL (≈ 1.17 µM) | 0.08 µg/mL (≈ 0.312 µM) | 1.25 mg/kg | 1 mg/kg |  |  | 25 mg/kg | 2.5 mg/kg | 1.5 mg/kg |  | 
3 | CCOC(=O)CN1Cc2c(ccc(Cl)c2Cl)NC1=N [Compound III, Ethyl 5,6-Dichloro-3,4-dihydro-2(1H)-iminoquinazoline-3-acetate Hydrobromide] | 9 µg/mL | 3.6 µg/mL |  |  |  |  |  |  |  |  | 
4 | OCCN(CCO)c1nc(N2CCCCC2)c2nc(N(CCO)CCO)nc(N3CCCCC3)c2n1 [Dipyridamole] | > 512 µg/mL |  | > 100 mg/kg | > 100 mg/kg |  |  | > 256 mg/kg |  |  | > 60 mg/kg | > 35 mg/kg
5 | O=C1C(CC[S+]([O-])c2ccccc2)C(=O)N(c2ccccc2)N1c1ccccc1 (centres unmarked) [Sulfinpyrazone] | > 512 µg/mL | 62 µg/mL (≈ 153 µM) | > 100 mg/kg | 3 mg/kg |  |  | > 128 mg/kg |  | > 100 mg/kg | > 60 mg/kg | 
